Measurements taken from ChEMBL document CHEMBL3885881, “DrugMatrix”.

Species: Rattus norvegicus
Assay: DrugMatrix - Regimen: Daily Repeat
Assay type: toxicity, organism-based, Sprague-Dawley
Parameters: regimen Daily Repeat, gender Male, age 6-8 weeks
Details: in vivo, po, route oral GAVAGE, vehicle 100 % SALINE; for ABSOLUTE BASOPHIL / ABSOLUTE EOSINOPHIL / ABSOLUTE LYMPHOCYTE / ABSOLUTE MONOCYTE / ABSOLUTE SEGMENTED NEUTROPHIL / BASOPHIL / EOSINOPHIL / ERYTHROCYTE COUNT / HEMATOCRIT / HEMOGLOBIN / LEUKOCYTE COUNT / LYMPHOCYTE / MEAN CORPUSCULAR HEMOGLOBIN / MEAN CORPUSCULAR HEMOGLOBIN CONCENTRATION / MEAN CORPUSCULAR VOLUME / MONOCYTE / NEUTROPHIL / NUCLEATED RED BLOOD CELLS / PLATELET COUNT: tissue Blood; for ALANINE AMINOTRANSFERASE / ALBUMIN / ALKALINE PHOSPHATASE / ASPARTATE AMINOTRANSFERASE / BLOOD UREA NITROGEN / CARBON DIOXIDE / CHLORIDE / CHOLESTEROL / CREATINE PHOSPHOKINASE / CREATININE / GLUCOSE / LACTATE DEHYDROGENASE / LIPASE / PHOSPHORUS / POTASSIUM / SODIUM / TOTAL BILIRUBIN / TOTAL PROTEIN / URIC ACID: tissue Plasma
[1] = 10 mg/kg, […], dose level Low, time 7 day
[2] = 30 mg/kg, 72 h, dose level High, time 3 day
[3] = 30 mg/kg, […], dose level High, time 7 day

O=[As][O-].[Na+] [SODIUM ARSENITE]
ABSOLUTE BASOPHIL [1]: 0 CELLS/uL | ABSOLUTE EOSINOPHIL [1]: 0 CELLS/uL | ABSOLUTE LYMPHOCYTE [1]: 8882.33 CELLS/uL | ABSOLUTE MONOCYTE [1]: 292.83 CELLS/uL | ABSOLUTE SEGMENTED NEUTROPHIL [1]: 1158.17 CELLS/uL | BASOPHIL [1]: 0% | EOSINOPHIL [1]: 0% | ERYTHROCYTE COUNT [1]: 5.16 x10E6/uL | HEMATOCRIT [1]: 33.38% | HEMOGLOBIN [1]: 13.23 G/DL | LEUKOCYTE COUNT [1]: 10.33 x10E3/uL | LYMPHOCYTE [1]: 86.17% | MEAN CORPUSCULAR HEMOGLOBIN [1]: 25.68 pg | MEAN CORPUSCULAR HEMOGLOBIN CONCENTRATION [1]: 39.65 G/DL | MEAN CORPUSCULAR VOLUME [1]: 64.67 fL | MONOCYTE [1]: 2.83% | NEUTROPHIL [1]: 11% | NUCLEATED RED BLOOD CELLS [1]: 0 /100WBC | PLATELET COUNT [1]: 1191.67 x10E3/uL | ALANINE AMINOTRANSFERASE [1]: 43 u/L | ALBUMIN [1]: 4.45 G/DL | ALKALINE PHOSPHATASE [1]: 255.83 u/L | ASPARTATE AMINOTRANSFERASE [1]: 72.83 u/L | BLOOD UREA NITROGEN [1]: 13 mg/dL | CARBON DIOXIDE [1]: 29.83 mmol/L | CHLORIDE [1]: 98.83 MEQ/L | CHOLESTEROL [1]: 69.17 mg/dL | CREATINE PHOSPHOKINASE [1]: 248.67 u/L | CREATININE [1]: 0.18 mg/dL | GLUCOSE [1]: 139.17 mg/dL | LACTATE DEHYDROGENASE [1]: 91.83 u/L | LIPASE [1]: 10.5 u/L | PHOSPHORUS [1]: 11.75 mg/dL | POTASSIUM [1]: 6.25 MEQ/L | SODIUM [1]: 143.22 MEQ/L | TOTAL BILIRUBIN [1]: 0.15 mg/dL | TOTAL PROTEIN [1]: 5.95 G/DL | URIC ACID [1]: 0.93 mg/dL | ABSOLUTE BASOPHIL [2]: 0 CELLS/uL | ABSOLUTE EOSINOPHIL [2]: 24.17 CELLS/uL | ABSOLUTE LYMPHOCYTE [2]: 11880.83 CELLS/uL | ABSOLUTE MONOCYTE [2]: 220.67 CELLS/uL | ABSOLUTE SEGMENTED NEUTROPHIL [2]: 724.33 CELLS/uL | BASOPHIL [2]: 0% | EOSINOPHIL [2]: 0.17% | ERYTHROCYTE COUNT [2]: 5.56 x10E6/uL | HEMATOCRIT [2]: 36.35% | HEMOGLOBIN [2]: 12.9 G/DL | LEUKOCYTE COUNT [2]: 12.85 x10E3/uL | LYMPHOCYTE [2]: 92.17% | MEAN CORPUSCULAR HEMOGLOBIN [2]: 23.27 pg | MEAN CORPUSCULAR HEMOGLOBIN CONCENTRATION [2]: 35.48 G/DL | MEAN CORPUSCULAR VOLUME [2]: 65.6 fL | MONOCYTE [2]: 1.83% | NEUTROPHIL [2]: 5.83% | NUCLEATED RED BLOOD CELLS [2]: 0 /100WBC | PLATELET COUNT [2]: 1116 x10E3/uL | ALANINE AMINOTRANSFERASE [2]: 34.67 u/L | ALBUMIN [2]: 3.6 G/DL | ALKALINE PHOSPHATASE [2]: 172.83 u/L | ASPARTATE AMINOTRANSFERASE [2]: 76.5 u/L | BLOOD UREA NITROGEN [2]: 11.33 mg/dL | CARBON DIOXIDE [2]: 26.83 mmol/L | CHLORIDE [2]: 102.5 MEQ/L | CHOLESTEROL [2]: 75 mg/dL | CREATINE PHOSPHOKINASE [2]: 194.17 u/L | CREATININE [2]: 0.16 mg/dL | GLUCOSE [2]: 125.67 mg/dL | LACTATE DEHYDROGENASE [2]: 103.33 u/L | LIPASE [2]: 11.83 u/L | PHOSPHORUS [2]: 9.52 mg/dL | POTASSIUM [2]: 5.42 MEQ/L | SODIUM [2]: 143 MEQ/L | TOTAL BILIRUBIN [2]: 0.18 mg/dL | TOTAL PROTEIN [2]: 5.17 G/DL | URIC ACID [2]: 0.68 mg/dL | ABSOLUTE BASOPHIL [3]: 0 CELLS/uL | ABSOLUTE EOSINOPHIL [3]: 81.83 CELLS/uL | ABSOLUTE LYMPHOCYTE [3]: 12174.33 CELLS/uL | ABSOLUTE MONOCYTE [3]: 445.83 CELLS/uL | ABSOLUTE SEGMENTED NEUTROPHIL [3]: 2681.33 CELLS/uL | BASOPHIL [3]: 0% | EOSINOPHIL [3]: 0.5% | ERYTHROCYTE COUNT [3]: 5.27 x10E6/uL | HEMATOCRIT [3]: 32.5% | HEMOGLOBIN [3]: 12.83 G/DL | LEUKOCYTE COUNT [3]: 15.38 x10E3/uL | LYMPHOCYTE [3]: 81% | MEAN CORPUSCULAR HEMOGLOBIN [3]: 24.38 pg | MEAN CORPUSCULAR HEMOGLOBIN CONCENTRATION [3]: 39.47 G/DL | MEAN CORPUSCULAR VOLUME [3]: 61.75 fL | MONOCYTE [3]: 2.67% | NEUTROPHIL [3]: 15.83% | NUCLEATED RED BLOOD CELLS [3]: 0 /100WBC | PLATELET COUNT [3]: 966.33 x10E3/uL | ALANINE AMINOTRANSFERASE [3]: 39.67 u/L | ALBUMIN [3]: 4.02 G/DL | ALKALINE PHOSPHATASE [3]: 141.83 u/L | ASPARTATE AMINOTRANSFERASE [3]: 90 u/L | BLOOD UREA NITROGEN [3]: 16 mg/dL | CARBON DIOXIDE [3]: 27 mmol/L | CHLORIDE [3]: 100.17 MEQ/L | CHOLESTEROL [3]: 65.83 mg/dL | CREATINE PHOSPHOKINASE [3]: 152.83 u/L | CREATININE [3]: 0.14 mg/dL | GLUCOSE [3]: 126.83 mg/dL | LACTATE DEHYDROGENASE [3]: 98.33 u/L | LIPASE [3]: 9.83 u/L | PHOSPHORUS [3]: 9.15 mg/dL | POTASSIUM [3]: 5.46 MEQ/L | SODIUM [3]: 142.78 MEQ/L | TOTAL BILIRUBIN [3]: 0.13 mg/dL | TOTAL PROTEIN [3]: 5.38 G/DL | URIC ACID [3]: 0.55 mg/dL
